Experimental data reported in patent publication US8012972B2, “Pyridinecarboxylic acid (2-aminophenyl) amide derivative having urea structure” (Santen Pharmaceutical Co., Ltd., priority 2007, dated 2011).

Tests used:
[1] = system: human trabecular meshwork cell line (TM-1 cells); assay: Effect of morphological change on trabecular meshwork cells (cell shape index, CSI); format: cell-based; details: final concentration 10 μM, 24 hours, control CSI 0.679, lower CSI indicates greater morphological change
Experimental: As a method for evaluating a cellular morphological change, an evaluation system using the cell shape index (hereinafter referred to as “CSI”) as an index has been reported in The Journal of Clinical Investigation, 103, 1141-1150 (1999). Therefore, according to the method described in the above document, an effect of morphological change of the present compounds on trabecular meshwork cells was evaluated.
A human trabecular meshwork cell line (hereinafter referred to as “TM-1 cells”) reported in Investigative Opthalmology & Visual Science, 43, 151-161 (2002) was used.
Culture medium 1: A reagent was prepared by adding fetal bovine serum (10%), L-glutamine (2 mM), amphotericin B (2.5 μg/mL), and gentamicin (25 μg/mL) to Dulbecco's Modified Eagle Medium (hereinafter referred to as “D-MEM”).
Culture medium 2: Fetal bovine serum (3%), L-glutamine (2 mM), amphotericin B (2.5 μg/mL), and gentamicin (25 μg/mL) were added to D-MEM. […]
10) Using Array Scan Vti HCS reader (manufactured by Cellomics), images of stained cells magnified with a 20-fold objective lens were captured in 80 fields (10 fields×8 wells) per test compound addition group.
11) CSI was calculated for each cell and an average value was obtained for each test compound addition group.
CSI was calculated using the following equation. […]

[2] = system: HDAC (HeLa nuclear extract); assay: Test for evaluation of HDAC inhibitory activity (HDAC Fluorimetric Assay/Drug Discovery Kit, Biomol); format: biochemical; details: final concentration of test compound 30 μM, rates of more than 100% are shown as 100%
Experimental: Using HDAC Fluorimetric Assay/Drug Discovery Kit (manufactured by Biomol), HDAC inhibitory activity of the present compounds was measured according to the protocol included with the kit. The kit contains Buffer, HeLa nuclear extract (includes HDAC), Substrate, Developer and Trichostatin A (an HDAC inhibitor).
A test compound was dissolved in dimethyl sulfoxide, whereby a 2 mg/mL solution was prepared. Then, the resulting solution was diluted with Buffer containing 5% dimethyl sulfoxide, whereby a 150 μM test compound solution was prepared.
1) To a 384-well culture plate, the test compound solution was added in an amount of 2 μL per well.
2) HeLa nuclear extract was diluted 30-fold with Buffer. The resulting solution was added in an amount of 3 μL per well and then, incubation was performed at 37° C. for 2 hours.
3) Substrate was diluted 500-fold with Buffer. […]
5) The fluorescence intensity of each well was measured using multilabel counter ARVO (manufactured by Wallac) with excitation at 360 nm and emission at 460 nm. […]
Enzyme inhibitory rate (%) was calculated using the following equation. (Enzyme Inhibitory Rate(%))=100×[1−{(Fluorescence Intensity of Test Compound Solution)−(Florescence Intensity of Blank)}/{(Florescence Intensity of Control)−(Florescence Intensity of Blank)}] […]

Enzyme Inhibitory Rate (%) [2]: 100%
Structure (SMILES): Nc1ccccc1NC(=O)c1ccc(CN(CCCN2CCCCC2)C(=O)NCCc2ccccc2)cn1 [Compound 1-3]
CSI [1]: 0.569
